Article PMC9603588, “Structural Basis of Peptide-Based Antimicrobial Inhibition of a Resistance-Nodulation-Cell Division Multidrug Efflux Pump” (Microbiology Spectrum, 2022)
Values after ≈ are worked out from the molar mass of the structure shown. Where two headings read alike, the source gives them in different places.

Legend:
[1] = test system: N. subflava ATCC 49275; experiment: MIC of Nov for N. subflava; assay type: cell-based; details: Neisseria subflava, ATCC49275
[2] = test system: P. aeruginosa; experiment: MIC of Nov for P. aeruginosa; assay type: cell-based; details: Pseudomonas aeruginosa
[3] = test system: N. gonorrhoeae WHO X; experiment: Nov MIC against gonococci by agar dilution, WHO X; assay type: cell-based; details: Neisseria gonorrhoeae, strain WHO X
Protocol: (§1) The MICs for Nov were determined by agar dilution as described previously ([53]). The construction of the mtrD::kan transformants was described previously ([3], [61]); note that WHO X was originally termed H041.

[4] = test system: N. gonorrhoeae FA19; experiment: Nov MIC against gonococci by agar dilution, FA19; assay type: cell-based; details: Neisseria gonorrhoeae, strain FA19
Protocol: as §1

[5] = test system: N. gonorrhoeae WHO X mtrD::kan; experiment: Nov MIC against gonococci by agar dilution, WHO X mtrD::kan; assay type: cell-based; details: Neisseria gonorrhoeae
Protocol: as §1

[6] = test system: S. enterica subsp. enterica; experiment: MIC of Nov for S. enterica subsp. enterica; assay type: cell-based; details: Salmonella enterica
[7] = test system: E. coli K-12 ΔtolC::kan; experiment: MIC of Nov for E. coli K-12 ΔtolC::kan; assay type: cell-based; details: Escherichia coli, read-out: MIC of Nov
[8] = test system: E. coli BL21(DE3) ΔacrB/pACYCΩmtrCDE; experiment: MIC of antibiotics for E. coli BL21(DE3) ΔacrB/pACYCΩmtrCDE; assay type: cell-based; details: Escherichia coli
[9] = test system: E. coli K-12; experiment: MIC of Nov for E. coli K-12; assay type: cell-based; details: Escherichia coli, K12
[10] = test system: N. gonorrhoeae FA19 mtrD::kan; experiment: Nov MIC against gonococci by agar dilution, FA19 mtrD::kan; assay type: cell-based; details: Neisseria gonorrhoeae
Protocol: as §1

[11] = molecular target: MtrD_(CR103) multidrug efflux pump (MtrD from N. gonorrhoeae strain CR.103) (Neisseria gonorrhoeae strain CR.103) (UniProt Q51073); experiment: cryo-EM structure; 2 μM MtrD_(CR103)-nanodisc sample incubated with 100 μM CASP, 20 μM Col or 50 μM LL for 2 h; single-particle cryo-EM

## CO[C@@H]1[C@@H](OC(N)=O)[C@@H](O)[C@H](Oc2ccc3c(O)c(NC(=O)c4ccc(O)c(CC=C(C)C)c4)c(=O)oc3c2C)OC1(C)C [Nov, novobiocin]
[1]
  MIC: 1 µg/mL
[2]
  MIC: > 1000 µg/mL
[3]
  MIC: 1 µg/mL (≈ 1.63 µM)
[4]
  MIC: 0.25 µg/mL (≈ 0.408 µM)
[5]
  MIC: 0.25 µg/mL (≈ 0.408 µM)
[6]
  MIC: 512 µg/mL
[7]
  MIC: 4 µg/mL
[8]; read-out: MIC for Nov
  MIC: 125 µg/mL
[9]
  MIC: > 128 µg/mL
[10]
  MIC: 0.06 µg/mL (≈ 0.0979 µM)

## [H]/N=C(/N)N[C@H]1[C@H](O)[C@@H](O)[C@H](O[C@@H]2O[C@@H](C)[C@](O)(C=O)[C@H]2O[C@@H]2O[C@@H](CO)[C@H](O)[C@@H](O)[C@@H]2NC)[C@@H](N/C(N)=N\[H])[C@@H]1O [streptomycin]
[8]; read-out: MIC of streptomycin
  MIC: 8 µg/mL

## MtrD_(CR103) multidrug efflux pump (MtrD from N. gonorrhoeae strain CR.103) (from UniProt Q51073 1-1067) (natural protein)
[11]
  stoichiometry N: 3
